{"source": "patent US20100190737A1", "about": "“COMPOSITIONS COMPRISING INOSINE AND OROTIC ACID AND METHODS OF USE THEREOF FOR THE TREATMENT OF CERTAIN HEART CONDITIONS AND ENHANCEMENT OF WORK CAPACITY” (NUTRITIONAL RESEARCH GROUP LLC, priority 2009, published 2010)", "key": {"[1]": {"tested_on": "patients with arrhythmia", "test": "Case studies: patients with arrhythmia given inosine/magnesium orotate capsules", "type": "in vivo, human", "conditions": "Example 5", "excerpt": "Another cardiac condition prevalent in the population is arrhythmia. Cardiac arrhythmia is characterized by an abnormal rate of cardiac muscle contractions. The rate of contractions may be too slow, too fast, too frequent or too infrequent. The present pharmaceutical composition stabilizes the cardiac arrhythmia."}, "[2]": {"tested_on": "chinchilla rabbits with experimental myocardial infarction", "test": "Experimentally-induced myocardial infarction (coronary artery ligation)", "type": "in vivo, rabbit", "conditions": "for NN of Animals With Necrosis: of 10 animals; for EKG Q: oral 100 mg/kg BW of each ingredient daily", "description": "Histological, light microscopic methods of investigation have been employed to study the zone of necrosis, perinecrotic zone and myocardium regions spaced from the time of infarction by 7 and 14 days after the infarction event. Dynamic electrocardiographic observation over the animals was carried out during the first day and during the following 7 and 14 days. The study of the total cross-sectional patterns of a rabbit's heart has made it possible to precisely define these zones. The first Group of 10 animals was sham-operated without treatment (Group I, positive control-Intact, no MI). […] Group II animals were without treatment (negative control-MI Control)."}, "[3]": {"tested_on": "white rats", "test": "Long-term (6 months) work capacity in trained and non-trained rats", "conditions": "untrained rats", "description": "Seventy two white rats were randomly placed in 6 groups (12 animals each), to test the effectiveness of training and to determine morphological and physiological alterations in the rats. In Group I, control rats were nontrained and not administered either of inosine or the combination of inosine and orotate; Group II comprised non-trained rats to which were administered inosine (25 mg/kg/body weight; Group III comprised non-trained rats to which were administered the combination of inosine plus potassium orotate (25 mg/kg/body weight of inosine and 50 mg/kg/body weight potassium orotate); Group IV comprised trained rats that were not administered either of inosine or the combination of inosine and orotate; Group V comprised trained rats to which was administered inosine alone (25 mg/kg/body weight), and Group VI comprised trained rats to which was administered the combination of inosine plus potassium orotate (25 mg/kg/body weight of inosine and 50 mg/kg/body weight potassium orotate).\nTraining of rats consisted of their forced swimming in a water bath (28-30° C.) with a weight fixed on their backs (7.5% of the rat body weight). During the first two weeks the animals swam daily for 5-10 minutes, after which we determined the individual maximum time of swimming to exhaustion (i.e. maximum work capacity) for each animal and then calculated the mean maximum time for each group. After 2 weeks these initial maximum work capacity values were used for planning and performing additional swimming training.\nThe functional condition of the rats at rest was estimated from their work capacity (maximum swimming time), body weight increase, EKG tests, oxygen consumption and sodium and potassium levels in the myocardium in a relatively quiet state. The morphological state of the heart and other viscera were rated from their absolute and relative weights, and also from histological and histochemical examinations of the myocardium. Also determined were the amounts of glycogen in the m. quadriceps (quadriceps group of muscles) of the hip, the myocardium and the liver. All the quantitative results obtained were processed with conventional statistical procedures."}, "[4]": {"tested_on": "mice", "test": "Short term (14 day) work capacity: swimming lengths within 30 minutes, hepatic glycogen", "type": "in vivo, mouse", "conditions": "for Swimming lengths / increase in number of swimming lengths: 14 days", "description": "Seventy two animals (mice) were divided into 12 groups of 6 animals each; a control group (untreated) and 11 test groups that were intragastrically administered varying daily doses of inosine, potassium orotate or an inosine plus potassium orotate combination (the “combination”) for 14 days. […] The swimming exercise consisted of forcing the animals to perform repetitive swimming in a three meter long channel until exhaustion. The level of exhaustion was determined by a count of the number of swimming lengths which each animal did within 30 minutes. A lower number of swimming lengths indicated a greater level of exhaustion, whereas a higher number of lengths indicated a greater work capacity."}, "[5]": {"tested_on": "rats with experimental aortic stenosis", "test": "Short term (7 day) experimental aortic stenosis: heart weight and swimming to exhaustion", "type": "in vivo, rat", "conditions": "EAS rats; for Heart Weight: intragastric daily", "excerpt": "There are two 7 day experiments in this portion of the study; a preliminary 7 day study with 54 rats in 9 groups (6 rats per group) to determine optimal dosage levels for the separate inosine or potassium orotate ingredients for farther experimentation by determination of maximal heart weight development and work capacity; and then a study with 30 rats in 5 groups (6 rats per group) using the optimal single ingredient dosage levels for comparison with the results of a composition of the ingredients. All compounds were administered intragastrically through a tube after being dissolved in approximately 1 ml of water.\nA single control group received a sham operation, while the rest of the groups received experimental aortic stenosis (“EAS”) operations (all according to Beznak in Journal Physiol. (Lond.) 120.23P, 1953 as modified by Kogan, Bull eksper. Biol. Med., 26:112, 1961 and then the other 13 groups received various treatments and dosages of inosine or potassium orotate or a composition of the two ingredients after the optimal inosine and potassium orotate dosages were determined. All animals were tested at the beginning and end of the experiment for swimming to exhaustion times with a 7.5% body weight load attached to their tails.\nSach compound, i.e., inosine and potassium orotate, was administered at different doses and the level of heart hypertrophy and work capacity was observed. Each of the compounds was evaluated in four doses: 12.5 mg/kg, 25 mg/kg, 50 mg/kg and 100 mg/kg body weight. Six animals were used in each group for inosine [4 groups] and potassium orotate [4 groups] plus the one control group (sham operated, no treatment); 54 animals in total.\nThirty white rats were divided into 5 groups (6 animals in each group). Group I was a sham-operated control group, Group II animals with experimental aortic stenosis but were untreated, Groups III, IV & V animals, all with experimental aortic stenosis received by an intragastric tube each day, either inosine (25 mg/kg body weight), potassium orotate (50 mg/kg body weight) or an composition of inosine (25 mg/kg body weight) plus potassium orotate (50 mg/kg body weight), respectively."}, "[6]": {"conditions": "seventh day, inosine 25 mg/kg BW, potassium orotate 50 mg/kg BW, alone or together"}, "[7]": {"conditions": "seventh day, inosine 25 mg/kg BW, potassium orotate 50 mg/kg BW, alone or together, listed as orotate"}}, "data": [{"smiles": "CCC(=O)O[C@@H](O[P@](=O)(CCCCc1ccccc1)CC(=O)N1C[C@H](C2CCCCC2)C[C@H]1C(=O)[O-])C(C)C.[Na+]", "note": "[Monopril]", "values": [{"measurement": "blood pressure (systolic over diastolic)", "setting": "[1]; 10 mg Monopril with 50 mg Toprol daily, one month, from 165/105", "result": "150/95"}, {"measurement": "blood pressure (systolic over diastolic)", "setting": "[1]; Monopril increased to 20 mg", "result": "145/90"}]}, {"smiles": "COCCc1ccc(OCC(O)CNC(C)C)cc1", "note": "(centres unmarked) [Toprol]", "values": [{"measurement": "arrhythmia episodes per week", "setting": "[1]; 50 mg Toprol daily, one month, from 3-4 times weekly", "result": "2-3 per week"}]}, {"smiles": "O=C(O)c1cc(=O)[nH]c(=O)[nH]1", "note": "[orotic acid]", "values": [{"measurement": "Thickness of Left Ventricular Wall", "setting": "[2]; Day 7", "result": "5.0 ± 0.61", "unit": "mm"}, {"measurement": "EKG QRS", "setting": "[2]; Day 7, 100 mg/kg BW each", "result": "0.07 ± 0.003", "unit": "s"}, {"measurement": "EKG R", "setting": "[2]; Day 7, 100 mg/kg BW each", "result": "4.2 ± 0.030", "unit": "mm"}, {"measurement": "NN of Animals With Necrosis", "setting": "[2]; Day 7, MI control 10", "result": 5}, {"measurement": "EKG Q", "setting": "[2]; Day 7", "result": "1.0 ± 0.02", "unit": "mm"}, {"measurement": "EKG QRS", "setting": "[2]; Day 14", "result": "0.06 ± 0.016", "unit": "s"}, {"measurement": "EKG R", "setting": "[2]; Day 14", "result": "4.4 ± 0.27", "unit": "mm"}, {"measurement": "Thickness of Left Ventricular Wall", "setting": "[2]; Day 14", "result": "5.4 ± 0.23", "unit": "mm"}, {"measurement": "NN of Animals With Necrosis", "setting": "[2]; Day 14, MI control 3", "result": 0}, {"measurement": "EKG Q", "setting": "[2]; Day 14", "result": "0.6 ± 0.05", "unit": "mm"}, {"measurement": "reduction in necroses", "setting": "[2]; administered individually, 100 mg/kg", "result": 50, "unit": "%"}, {"measurement": "hemorrhages or infiltration in the infarction zone", "setting": "[2]; by the fourteenth day", "result": "virtually had no hemorrhages or infiltration in the infarction zone"}, {"measurement": "restoration of EKG readings", "setting": "[2]; by the seventh experimental day", "result": "nearly a complete restoration of the voltage of EKG waves and of the systolic index"}]}, {"smiles": "O=C([O-])c1cc(=O)[nH]c(=O)[nH]1.[K+]", "note": "[potassium orotate]", "values": [{"measurement": "Heart weight after 6 mo.", "setting": "[3]", "result": "304 ± 9.2", "unit": "mg/100gk BW"}, {"measurement": "Oxygen consumption End of experiment", "setting": "[3]", "result": "27.0 ± 0.60", "unit": "ml/min/kg BW"}, {"measurement": "Swimming time Before", "setting": "[3]", "result": "72 ± 4.0", "unit": "min"}, {"measurement": "Glycogen in m. quadriceps, After work", "setting": "[3]; end of experiments", "result": "488 ± 15.0"}, {"measurement": "Glycogen in m. quadriceps, In rest", "setting": "[3]; end of experiments", "result": "860 ± 16.0"}, {"measurement": "Swimming time After 6 mo.", "setting": "[3]; INO 25 mg/kg, PO 50 mg/kg", "result": "80 ± 4.2", "unit": "min"}, {"measurement": "Swimming lengths", "setting": "[4]; 25 mg/kg BW", "result": 40.2}, {"measurement": "increase in number of swimming lengths", "setting": "[4]; 25 mg/kg/body weight daily", "result": 60.7, "unit": "%"}, {"measurement": "Swimming lengths", "setting": "[4]; 50 mg/kg BW", "result": 45.6}, {"measurement": "increase in number of swimming lengths", "setting": "[4]; 50 mg/kg/body weight daily", "result": 82.2, "unit": "%"}, {"measurement": "Swimming lengths", "setting": "[4]; 100 mg/kg BW", "result": 56.3}, {"measurement": "increase in number of swimming lengths", "setting": "[4]; 100 mg/kg/body weight daily", "result": 125, "unit": "%"}, {"measurement": "Swimming lengths", "setting": "[4]; 200 mg/kg BW", "result": 44.6}, {"measurement": "increase in number of swimming lengths", "setting": "[4]; 200 mg/kg/body weight daily", "result": 78.3, "unit": "%"}, {"measurement": "mean decrease of hepatic glycogen stores during the swimming exercise", "setting": "[4]; controls 67.5% from baseline", "result": 18.5, "unit": "%"}, {"measurement": "increased hepatic glycogen content", "setting": "[4]; inosine 25 mg/kg, potassium orotate 50 mg/kg, or combination", "result": 18, "unit": "%"}, {"measurement": "swimming time", "setting": "[5]; day 7, 12.5 mg/kg intragastrically, EAS control 15±5.0, sham 62±5.0", "result": "18 ± 4.0", "unit": "min"}, {"measurement": "swimming time", "setting": "[5]; day 7, 25 mg/kg", "result": "22 ± 3.0", "unit": "min"}, {"measurement": "swimming time", "setting": "[5]; day 7, 50 mg/kg", "result": "32 ± 3.0", "unit": "min"}, {"measurement": "swimming time", "setting": "[5]; day 7, 100 mg/kg", "result": "30 ± 3.0", "unit": "min"}, {"measurement": "relative heart weight", "setting": "[5]; seventh day, 12.5 mg/kg, EAS control 400±8.9, sham 300±5.0", "result": "420±6.0", "unit": "mg/100 g. body weight"}, {"measurement": "relative heart weight", "setting": "[5]; seventh day, 25 mg/kg", "result": "440±11", "unit": "mg/100 g. body weight"}, {"measurement": "relative heart weight", "setting": "[5]; seventh day, 50 mg/kg", "result": "460±16", "unit": "mg/100 g. body weight"}, {"measurement": "relative heart weight", "setting": "[5]; seventh day, 100 mg/kg", "result": "465±15", "unit": "mg/100 g. body weight"}, {"measurement": "swimming time", "setting": "[5]; [6]", "result": "33 ± 4", "unit": "min"}, {"measurement": "Heart Weight", "setting": "[5]; [6]", "result": "460±16", "unit": "mg/100 gr BW"}, {"measurement": "Heart Weight", "setting": "[5]; [7]", "result": "460 ± 16", "unit": "mg/100 gr BW"}, {"measurement": "swimming time", "setting": "[5]; [7]", "result": "33 ± 4.0", "unit": "min"}]}]}
